Source: PubChem BioAssay (NCI)
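Briefly, cells in 96-well plates were exposed to five compound concentrations for 48 h, and endpoints were estimated by linear interpolation. At the GI50, growth is halved. At the TGI there is no net growth.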

Legend:
Test in all cases: NCI-60 cell line screen, 48 h
IGROV1 ovarian = system: IGROV1 ovarian
RPMI-8226 leukemia = system: RPMI-8226 leukemia
A498 renal = system: A498 renal
CCRF-CEM leukemia = system: CCRF-CEM leukemia
KM12 colon = system: KM12 colon
SF-295 CNS = system: SF-295 CNS
SNB-75 CNS = system: SNB-75 CNS
NCI-H522 lung = system: NCI-H522 lung
MALME-3M melanoma = system: MALME-3M melanoma
EKVX NSCLC = system: EKVX NSCLC

SMILES	TGI (IGROV1 ovarian) [nM]	TGI (RPMI-8226 leukemia) [nM]	TGI (A498 renal) [nM]	TGI (CCRF-CEM leukemia) [nM]	TGI (KM12 colon) [nM]	TGI (SF-295 CNS) [nM]	TGI (SNB-75 CNS) [nM]	TGI (NCI-H522 lung) [nM]	TGI (MALME-3M melanoma) [nM]	TGI (EKVX NSCLC) [nM]	GI50 (IGROV1 ovarian) [nM]	GI50 (RPMI-8226 leukemia) [nM]	GI50 (A498 renal) [nM]	GI50 (CCRF-CEM leukemia) [nM]	GI50 (KM12 colon) [nM]	GI50 (SF-295 CNS) [nM]	GI50 (SNB-75 CNS) [nM]	GI50 (NCI-H522 lung) [nM]	GI50 (MALME-3M melanoma) [nM]	GI50 (EKVX NSCLC) [nM]
CCCCCCC(O)C/C=C/CCCCCC/C(C(=O)OC)=C(/O)C(=O)OCC (centres undefined)	> 100000	> 100000	> 100000	> 100000	> 100000	> 100000	> 100000	> 100000	> 100000	> 100000										
O=C1c2cccnc2-c2nc(-c3ccccn3)cc3c2c1nc1ccccc13	305	1030	1500		3170	1700	3810	320	1720	2100	99	253	481	61.9	426	423	1690	141	377	620
